Assay results reported in ChEMBL document CHEMBL1148416, “2-Alkylsulfanyl estrogen derivatives: synthesis of a novel class of multi-targeted anti-tumour agents” (Bioorg Med Chem Lett, 2004).

Tested on: MCF7
Assay: Anti-proliferative activity against MCF-7 human breast cancer cells was determined by using MCF-7 plate assay
Assay type: functional, cell-based

Row | SMILES | IC50
1 | CSc1cc2c(cc1O)CC[C@@H]1[C@@H]2CC[C@]2(C)[C@@H](O)CC[C@@H]12 | 3.96 µM
2 | CSc1cc2c(cc1OS(N)(=O)=O)CC[C@@H]1[C@@H]2CC[C@]2(C)[C@@H](O)CC[C@@H]12 | 0.43 µM
3 | CCSc1cc2c(cc1OS(N)(=O)=O)CC[C@@H]1[C@@H]2CC[C@]2(C)[C@@H](O)CC[C@@H]12 | 35.3 µM
4 | CSc1cc2c(cc1OS(N)(=O)=O)CCC1[C@@H]2CC[C@]2(C)C(=O)CC[C@@H]12 (single isomer, unassigned) | 0.4 µM
5 | CSc1cc2c(cc1O)CCC1[C@@H]2CC[C@]2(C)C(=O)CC[C@@H]12 (single isomer, unassigned) | 33.4 µM
6 | CCSc1cc2c(cc1O)CCC1[C@@H]2CC[C@]2(C)C(=O)CC[C@@H]12 (single isomer, unassigned) | 31.9 µM
7 | C[C@]12CC[C@@H]3c4ccc(OS(N)(=O)=O)cc4CCC3[C@@H]1CCC2=O (single isomer, unassigned) [EMATE] | 22.8 µM
8 | COc1cc2c(cc1O)CC[C@@H]1[C@@H]2CC[C@]2(C)[C@@H](O)CC[C@@H]12 [2-METHOXYESTRADIOL] | 2.39 µM
